Measurements: ChEMBL document CHEMBL5357031, “Design and Synthesis of Cytotoxic Water-Soluble Rocaglaol Derivatives against HEL Cells by Inhibiting Fli-1” (J Nat Prod, 2024)
pIC50: −log10 of the molar value. ≈ marks a conversion by molar mass, not a printed value. Counter-ions that a name gives are not always drawn.

Legend:
HEL = assay: Cytotoxicity against HEL cells assessed as cell growth inhibition incubated for 72 hrs by MTT assay; format: functional, cell-based, Homo sapiens
SW480 = assay: Cytotoxicity against human SW480 cells assessed as cell growth inhibition incubated for 72 hrs by MTT assay; format: functional, cell-based; details: Homo sapiens, SW480, 72 h
[1] = Solubility of compound in PBS at pH 7.4 at 2 mg measured for 24 hrs by HPLC-UV analysis; format: physicochemical
MDA-MB-231 [2] = assay: cells; details: Homo sapiens, MDA-MB-231, 72 h
Description: (§1) Cytotoxicity against human MDA-MB-231 cells assessed as cell growth inhibition incubated for 72 hrs by MTT assay

MDA-MB-231 [3] = test system: MDA-MB-231
Description: as §1

Row | SMILES | pIC50 (HEL; Homo sapiens, HEL, 72 h) | pIC50 (SW480) | solubility at 24 h [1] | pIC50 (MDA-MB-231 [2]) | pIC50 (HEL; hel) | pIC50 (MDA-MB-231 [3])
1 | COc1cc(OC)c2c(c1)O[C@@]1(c3ccc(O)cc3)[C@H](c3ccccc3)C[C@@H](O)[C@@]21O (racemic) | 6.74 | < 6.00 | 50 µg/mL (≈ 0.119 mM) | 6.46 |  | 
2 | COc1cc(OC)c2c(c1)O[C@@]1(c3ccc(O)c(CN4CCCCC4)c3)[C@H](c3ccccc3)C[C@@H](O)[C@@]21O (racemic) | < 6.00 | < 6.00 |  | < 6.00 |  | 
3 | COc1cc(OC)c2c(c1)O[C@@]1(c3ccc(OCCCCN4CCN(C)CC4)cc3)[C@H](c3ccccc3)C[C@@H](O)[C@@]21O (racemic) | 6.42 | 6.19 |  | 6.66 |  | 
4 | COc1cc(OC)c2c(c1)O[C@@]1(c3ccc(OCCCCN4CCCCC4)cc3)[C@H](c3ccccc3)C[C@@H](O)[C@@]21O (racemic) | 6.34 | < 6.00 |  | 6.18 |  | 
5 | CCN(CC)CCOc1ccc([C@@]23Oc4cc(OC)cc(OC)c4[C@]2(O)[C@H](O)C[C@H]3c2ccccc2)cc1 (racemic) | < 6.00 | < 6.00 |  | < 6.00 |  | 
6 | COc1cc(OC)c2c(c1)O[C@@]1(c3ccc(OCCCCCN4CCN(C)CC4)cc3)[C@H](c3ccccc3)C[C@@H](O)[C@@]21O (stereo in doubt; (-)-18o) |  |  |  |  | 6.92 | 
7 | COc1cc(OC)c2c(c1)O[C@@]1(c3ccc(OCCCCCN4CCN(C)CC4)cc3)[C@H](c3ccccc3)C[C@@H](O)[C@@]21O (racemic; form 1) |  | 6.26 | 8900 µg/mL (≈ 15.1 mM) |  | 6.64 | 6.96
8 | COc1cc(OC)c2c(c1)O[C@@]1(c3ccc(OC)c(CN4CCCCC4)c3)[C@H](c3ccccc3)C[C@@H](O)[C@@]21O (racemic) | 6.24 | < 6.00 |  | < 6.00 |  | 
9 | COc1cc(OC)c2c(c1)O[C@@]1(c3ccc(OCCn4ccnc4)cc3)[C@H](c3ccccc3)C[C@@H](O)[C@@]21O (racemic) | < 6.00 | < 6.00 |  | < 6.00 |  | 
10 | COc1cccc2c1C(=O)c1c(O)c3c(c(O)c1C2=O)C[C@@](O)(C(=O)CO)C[C@@H]3O[C@H]1C[C@H](N)[C@H](O)[C@H](C)O1 [DOXORUBICIN HYDROCHLORIDE] | 6.62 | 6.92 |  | 6.30 |  | 
11 | COc1cc(OC)c2c(c1)O[C@@]1(c3ccc(OCCCCCCCCn4cccc4)cc3)[C@H](c3ccccc3)C[C@@H](O)[C@@]21O (racemic) | < 6.00 | < 6.00 |  | < 6.00 |  | 
12 | CCN(CC)CCCCOc1ccc([C@@]23Oc4cc(OC)cc(OC)c4[C@]2(O)[C@H](O)C[C@H]3c2ccccc2)cc1 (racemic) | < 6.00 | < 6.00 |  | 6.26 |  | 
13 | COc1cc(OC)c2c(c1)O[C@@]1(c3ccc(OCCCCCCCCN4CCCCC4)cc3)[C@H](c3ccccc3)C[C@@H](O)[C@@]21O (racemic) | 6.62 | < 6.00 |  | < 6.00 |  | 
14 | COc1cc(OC)c2c(c1)O[C@@]1(c3ccc(OC)c(CN4CCOCC4)c3)[C@H](c3ccccc3)C[C@@H](O)[C@@]21O (racemic) | 6.85 | < 6.00 |  | < 6.00 |  | 
15 | CCN(CC)CCCCCOc1ccc([C@@]23Oc4cc(OC)cc(OC)c4[C@]2(O)[C@H](O)C[C@H]3c2ccccc2)cc1 (racemic) | 6.59 | 6.16 |  | 6.89 |  | 
16 | COc1cc(OC)c2c(c1)O[C@@]1(c3ccc(OC)c(CN(C)C)c3)[C@H](c3ccccc3)C[C@@H](O)[C@@]21O (racemic) | 6.72 | < 6.00 |  | < 6.00 |  | 
17 | COc1cc(OC)c2c(c1)O[C@@]1(c3ccc(O)c(CN(C)C)c3)[C@H](c3ccccc3)C[C@@H](O)[C@@]21O (racemic) | < 6.00 | < 6.00 |  | < 6.00 |  | 
18 | COc1cc(OC)c2c(c1)O[C@@]1(c3ccc(OCCN4CCCC4)cc3)[C@H](c3ccccc3)C[C@@H](O)[C@@]21O (racemic) | < 6.00 | < 6.00 |  | < 6.00 |  | 
19 | COc1cc(OC)c2c(c1)O[C@@]1(c3ccc(OCCCCCN4CCN(C)CC4)cc3)[C@H](c3ccccc3)C[C@@H](O)[C@@]21O (stereo in doubt; (+)-18o) |  |  |  |  | < 6.00 | 
20 | CCCCN(CCCC)Cc1cc([C@@]23Oc4cc(OC)cc(OC)c4[C@]2(O)[C@H](O)C[C@H]3c2ccccc2)ccc1O (racemic) | < 6.00 | < 6.00 |  | < 6.00 |  | 

Row | SMILES | pIC50 (HEL; Homo sapiens, HEL, 72 h) | pIC50 (SW480) | solubility at 24 h [1] | pIC50 (MDA-MB-231 [2]) | pIC50 (HEL; hel) | pIC50 (MDA-MB-231 [3])
21 | COc1cc(OC)c2c(c1)O[C@@]1(c3ccc(OCCN(C)C)cc3)[C@H](c3ccccc3)C[C@@H](O)[C@@]21O (racemic) | < 6.00 | < 6.00 |  | < 6.00 |  | 
22 | COc1cc(OC)c2c(c1)O[C@@]1(c3ccc(OCCN4CCCCC4)cc3)[C@H](c3ccccc3)C[C@@H](O)[C@@]21O (racemic) | < 6.00 | < 6.00 |  | < 6.00 |  | 
23 | COc1cc(OC)c2c(c1)O[C@@]1(c3ccc(OCCCCN(C)C)cc3)[C@H](c3ccccc3)C[C@@H](O)[C@@]21O (racemic) | < 6.00 | < 6.00 |  | 6.24 |  | 
24 | COc1cc(OC)c2c(c1)O[C@@]1(c3ccc(OCCN4CCN(C)CC4)cc3)[C@H](c3ccccc3)C[C@@H](O)[C@@]21O (racemic) | < 6.00 | < 6.00 |  | < 6.00 |  | 
25 | COc1cc(OC)c2c(c1)O[C@@]1(c3ccc(OCCCCCCCCN(C)C)cc3)[C@H](c3ccccc3)C[C@@H](O)[C@@]21O (racemic) | 6.66 | < 6.00 |  | 6.68 |  | 
26 | CCN(CC)CCCCCCCCOc1ccc([C@@]23Oc4cc(OC)cc(OC)c4[C@]2(O)[C@H](O)C[C@H]3c2ccccc2)cc1 (racemic) | 6.41 | 6.19 |  | 6.33 |  | 
27 | COc1cc(OC)c2c(c1)O[C@@]1(c3ccc(O)c(CN4CCCC4)c3)[C@H](c3ccccc3)C[C@@H](O)[C@@]21O (racemic) | < 6.00 | < 6.00 |  | < 6.00 |  | 
28 | COc1cc(OC)c2c(c1)O[C@@]1(c3ccc(OCCCCCN4CCCCC4)cc3)[C@H](c3ccccc3)C[C@@H](O)[C@@]21O (racemic) | 6.74 | < 6.00 |  | 6.72 |  | 
29 | COc1cc(OC)c2c(c1)O[C@@]1(c3ccc(OCCCCCN(C)C)cc3)[C@H](c3ccccc3)C[C@@H](O)[C@@]21O (racemic) | 6.77 | < 6.00 |  | 6.43 |  | 
30 | COc1cc(OC)c2c(c1)O[C@@]1(c3ccc(OCCCCn4ccnc4)cc3)[C@H](c3ccccc3)C[C@@H](O)[C@@]21O (racemic) | 6.25 | < 6.00 |  | 6.19 |  | 
31 | COc1cc(OC)c2c(c1)O[C@@]1(c3ccc(O)c(CN4CCOCC4)c3)[C@H](c3ccccc3)C[C@@H](O)[C@@]21O (racemic) | 6.31 | < 6.00 |  | < 6.00 |  | 
32 | COc1cc(OC)c2c(c1)O[C@@]1(c3ccc(OCCn4cnc5ccccc54)cc3)[C@H](c3ccccc3)C[C@@H](O)[C@@]21O (racemic) | < 6.00 | < 6.00 |  | < 6.00 |  | 
33 | COc1cc(OC)c2c(c1)O[C@@]1(c3ccc(OC)c(CN4CCCC4)c3)[C@H](c3ccccc3)C[C@@H](O)[C@@]21O (racemic) | 6.17 | < 6.00 |  | < 6.00 |  | 
34 | CCCCN(CCCC)Cc1cc([C@@]23Oc4cc(OC)cc(OC)c4[C@]2(O)[C@H](O)C[C@H]3c2ccccc2)ccc1OC (racemic) | < 6.00 | < 6.00 |  | < 6.00 |  | 
35 | COc1cc(OC)c2c(c1)O[C@@]1(c3ccc(OCCCCCCCCN4CCN(C)CC4)cc3)[C@H](c3ccccc3)C[C@@H](O)[C@@]21O (racemic) | 6.34 | 6.16 |  | 6.35 |  | 
36 | COc1cc(OC)c2c(c1)O[C@@]1(c3ccc(OCCN4CCOCC4)cc3)[C@H](c3ccccc3)C[C@@H](O)[C@@]21O (racemic) | < 6.00 | < 6.00 |  | < 6.00 |  | 
37 | COc1cc(OC)c2c(c1)O[C@@]1(c3ccc(OCCCCCn4ccnc4)cc3)[C@H](c3ccccc3)C[C@@H](O)[C@@]21O (racemic) | 6.51 | 6.06 |  | 6.49 |  | 
38 | CCN(CC)Cc1cc([C@@]23Oc4cc(OC)cc(OC)c4[C@]2(O)[C@H](O)C[C@H]3c2ccccc2)ccc1O (racemic) | < 6.00 | < 6.00 |  | < 6.00 |  | 
39 | CCN(CC)Cc1cc([C@@]23Oc4cc(OC)cc(OC)c4[C@]2(O)[C@H](O)C[C@H]3c2ccccc2)ccc1OC (racemic) | 6.92 | 6.37 |  | < 6.00 |  | 
